Source: ChEMBL document CHEMBL3044558, “Structure-activity relationship development of dihaloaryl triazole compounds as insecticides and acaricides. 1. Phenyl thiophen-2-yl triazoles” (2007)
Calls of active or inactive are those of the source. The calls are words filed in the database; no cut-off is given here.

Columns and labels:
Spodoptera exigua = assay: Insecticidal activity against Spodoptera exigua second-instar larvae feeded on 400 ppm compound treated lepidopteran diet assessed as insect mortality measured 5 days post compound treatment under green house conditions; assay type: functional; conditions: at 400 ppm
Tetranychus urticae = assay: Insecticidal activity against female Tetranychus urticae (two-spotted spider mite) infested cotton leaf disks followed by 2.5 ppm compound spraying after oviposit assessed as insect mortality measured after 6 days post compound application under green house conditions; assay type: functional; conditions: foliar, 144 h
Trichoplusia ni [1] = assay: Insecticidal activity against Trichoplusia ni (cabbage looper) second-instar larvae infested on 400 ppm compound pre-treated cabbage leaf disk assessed as insect mortality measured 5 days post compound treatment under green house conditions; assay type: functional; conditions: at 400 ppm
Bemisia tabaci [2] = tested on: Bemisia tabaci
Heliothis virescens = assay: Insecticidal activity against Heliothis virescens (tobacco budworm) second-instar larvae infested on 400 ppm compound pre-treated cotton cotyledon disk assessed as insect mortality measured 5 days post compound treatment under green house conditions; assay type: functional
Aphis gossypii [3] = assay: Insecticidal activity against Aphis gossypii (cotton aphid) infested one week old Crookneck squash plants assessed as insect mortality at 50 ppm measured after 3 days post compound application under green house conditions; assay type: functional; conditions: 72 h
Bemisia tabaci [4] = assay: Insecticidal activity against Bemisia tabaci (sweet potato whitefly) second-instar larvae infested five weeks old cotton plants followed by compound 250 ppm compound spraying after insect oviposit assessed as insect mortality measured 13 days post compound treatment under green house conditions; assay type: functional
Aphis gossypii [5] = tested on: Aphis gossypii
Trichoplusia ni [6] = tested on: Trichoplusia ni

Row | SMILES | mortality (Spodoptera exigua) [%] | mortality at 2.5 ppm (Tetranychus urticae) [%] | mortality (Trichoplusia ni [1]) [%] | mortality (Bemisia tabaci [2]) | mortality (Heliothis virescens) [%] | mortality at 50 ppm (Aphis gossypii [3]) [%] | mortality (Bemisia tabaci [4]) [%] | mortality (Aphis gossypii [5]) | mortality (Trichoplusia ni [6])
1 | CCOc1ccc(-c2sc(-c3nc(-c4c(F)cccc4Cl)nn3C)c(C)c2C)cc1 | 90 | 90 | 80 | inactive | <50 | < 50 | – | – | –
2 | Cc1sc(-c2nc(-c3c(F)cccc3Cl)nn2C)c(C)c1-c1ccc(OC(F)(F)C(F)Cl)cc1 (stereo unspecified) | 80 | 70 | <50 | – | 80 | < 50 | 80 | – | –
3 | CCOc1ccc(-c2cc(Cl)c(-c3nc(-c4c(F)cccc4F)nn3C)s2)cc1 | 60 | 80 | <50 | inactive | 90 | – | – | inactive | –
4 | Cn1nc(-c2c(F)cccc2Cl)nc1-c1sc(-c2ccc(C(F)(F)F)cc2)cc1Cl | 60 | 90 | 90 | – | 90 | 90 | <50 | – | –
5 | Cn1nc(-c2c(F)cccc2Cl)nc1-c1sc(-c2ccc(Br)cc2)cc1Cl | 80 | 90 | 90 | inactive | 90 | 90 | – | – | –
6 | Cc1cc(-c2cccc(C(F)(F)F)c2)sc1-c1nc(-c2c(F)cccc2Cl)nn1C | 70 | < 50 | 90 | inactive | <50 | < 50 | – | – | –
7 | Cc1cc(C2=CCC(OC(F)(F)C(F)Cl)CC2)sc1-c1nc(-c2c(F)cccc2Cl)nn1C (stereo unspecified) | 70 | 90 | – | – | 90 | 90 | 50 | – | inactive
8 | Cn1nc(-c2c(F)cccc2Cl)nc1-c1sc(-c2ccc(OC(F)(F)F)cc2)c(Br)c1Cl | 90 | 80 | 70 | – | 90 | 60 | <50 | – | –
9 | CCOc1cccc(-c2cc(C)c(-c3nc(-c4c(F)cccc4Cl)nn3C)s2)c1 | 80 | 70 | <50 | inactive | <50 | – | – | inactive | –
10 | Cc1sc(-c2nc(-c3c(F)cccc3Cl)nn2C)c(C)c1-c1ccc(C(F)(F)F)cc1 | 90 | 90 | – | – | 60 | < 50 | 60 | – | inactive
11 | CSc1ccc(-c2cc(Cl)c(-c3nc(-c4c(F)cccc4Cl)nn3C)s2)cc1 | 60 | 90 | 80 | – | 90 | 60 | <50 | – | –
12 | Cc1cc(-c2ccc3c(c2)COC3)sc1-c1nc(-c2c(F)cccc2Cl)nn1C | 60 | 80 | 70 | inactive | 90 | – | – | inactive | –
13 | Cn1nc(-c2c(F)cccc2F)nc1-c1sc(-c2ccc(OC(F)(F)F)cc2)cc1Cl | <50 | 90 | <50 | inactive | 80 | 80 | – | – | –
14 | Cc1cc(C2CCC(OC(F)(F)C(F)Cl)CC2)sc1-c1nc(-c2c(F)cccc2Cl)nn1C (stereo unspecified) | 90 | 80 | 90 | – | 90 | < 50 | – | – | –
15 | Cc1cc(-c2ccc(F)cc2)sc1-c1nc(-c2c(F)cccc2Cl)nn1C | 80 | 60 | 90 | inactive | 90 | < 50 | – | – | –
16 | Cc1cc(-c2ccc(OC(C)C)cc2)sc1-c1nc(-c2c(F)cccc2Cl)nn1C | 60 | 60 | 90 | – | 80 | – | – | inactive | –
17 | Cc1sc(-c2nc(-c3c(F)cccc3Cl)nn2C)c(C)c1-c1ccc(OC(F)(F)F)cc1 | 90 | 90 | <50 | – | 90 | 70 | 60 | – | –
18 | Cc1cc(-c2ccc(Cl)cc2)sc1-c1nc(-c2c(F)cccc2Cl)nn1C | 90 | 90 | 90 | – | 90 | 60 | 60 | – | –
